# In patent US8440724B2, “Inhibiting neurotransmitter reuptake” (Mayo Foundation for Medical Education and Research, priority 2008, dated 2013):
# Read-outs that look alike come from different tables or passages of the source.
# Experiments:
# [1] = biological target: human norepinephrine transporter (Homo sapiens, UniProt P23975); experiment: Inhibition of [3H]NE transport into HEK-293 cells expressing the human transporter
# [2] = biological target: human serotonin transporter (Homo sapiens, UniProt P31645); experiment: Inhibition of [3H]5-HT transport into HEK-293 cells expressing the human transporter
# human serotonin transporter, sequence (P31645 whole entry): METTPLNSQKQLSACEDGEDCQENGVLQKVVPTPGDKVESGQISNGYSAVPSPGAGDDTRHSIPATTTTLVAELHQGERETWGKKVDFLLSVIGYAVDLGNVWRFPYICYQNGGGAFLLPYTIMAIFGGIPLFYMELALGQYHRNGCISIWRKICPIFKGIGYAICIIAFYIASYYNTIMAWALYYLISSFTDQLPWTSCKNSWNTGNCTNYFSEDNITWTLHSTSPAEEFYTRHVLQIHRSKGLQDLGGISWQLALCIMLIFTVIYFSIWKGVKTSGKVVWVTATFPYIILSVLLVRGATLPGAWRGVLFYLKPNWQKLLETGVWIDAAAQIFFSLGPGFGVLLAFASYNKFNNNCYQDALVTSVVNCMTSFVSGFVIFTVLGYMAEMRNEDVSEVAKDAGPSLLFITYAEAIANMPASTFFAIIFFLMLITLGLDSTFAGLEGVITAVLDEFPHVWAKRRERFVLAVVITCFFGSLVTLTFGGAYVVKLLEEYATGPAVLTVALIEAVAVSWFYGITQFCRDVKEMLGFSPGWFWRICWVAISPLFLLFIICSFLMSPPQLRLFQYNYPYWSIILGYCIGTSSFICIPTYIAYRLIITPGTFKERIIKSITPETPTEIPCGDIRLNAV
# male C57BL/6J mice = experiment: Tail suspension test (TST) in mice; type: in vivo, mouse; details: for Duration of immobility in TST vs saline: 5 mg/kg IP, FIG. 10E
# Experimental: When mice are suspended by their tail, there is an initial period of agitation, followed by immobility. This test identifies antidepressant compounds, which decrease the duration of immobility.
# Test compounds were prepared by formulating the compounds with a pharmaceutically acceptable carrier such as saline. […] Each mouse was then subjected to the tail-suspension test (TST). Each mouse (n>3) was suspended by its tail 45 cm above the table top with the use of adhesive tape placed 1 cm from the tip of its tail. Behavior was scored every 5 seconds throughout the 6-minute test as either mobile or immobile (FIG. 10A-D) or total duration of immobility during the 6-minute test (FIGS. 10E and 10H). Mice were considered immobile only when hanging passively and completely motionless. Scores for each behavior were expressed as total counts per 6-minute session.
# [3] = tested on: human serotonin, norepinephrine and dopamine transporters; experiment: Transport into cells expressing human transporters: rank order of potency, comparison with rat; type: cell-based; details: for Potency (rank order, transport into cells expressing human transporters): from Ki values, S = 5-HT, N = NE, D = DA; for Species selectivity: blocking transport by human vs rat serotonin and dopamine transporters: human transporters in cells vs rat synaptosomal preparations (Tables 3 and 4)
# hSERT, hNET, hDAT = experiment: Human transporter binding: rank order and range of potency over the three transporters; details: for Potency (rank-order of potency of binding; S = hSERT, N = hNET, D = hDAT): from KD values; for Potency Range (difference between most potent and least potent binding): ratio of KD over hSERT, hNET, hDAT
# From the text: The program was modified to calculate the Hill coefficient (nH). Data are presented as geometric mean±S.E.M. of at least three independent experiments. One-component models and two-component models were compared using the root mean square error of each fit and the F test.
# [4] = biological target: human dopamine transporter (Homo sapiens, UniProt Q01959); experiment: Inhibition of [3H]DA transport into HEK-293 cells expressing the human transporter
# human dopamine transporter, sequence (Q01959 whole entry): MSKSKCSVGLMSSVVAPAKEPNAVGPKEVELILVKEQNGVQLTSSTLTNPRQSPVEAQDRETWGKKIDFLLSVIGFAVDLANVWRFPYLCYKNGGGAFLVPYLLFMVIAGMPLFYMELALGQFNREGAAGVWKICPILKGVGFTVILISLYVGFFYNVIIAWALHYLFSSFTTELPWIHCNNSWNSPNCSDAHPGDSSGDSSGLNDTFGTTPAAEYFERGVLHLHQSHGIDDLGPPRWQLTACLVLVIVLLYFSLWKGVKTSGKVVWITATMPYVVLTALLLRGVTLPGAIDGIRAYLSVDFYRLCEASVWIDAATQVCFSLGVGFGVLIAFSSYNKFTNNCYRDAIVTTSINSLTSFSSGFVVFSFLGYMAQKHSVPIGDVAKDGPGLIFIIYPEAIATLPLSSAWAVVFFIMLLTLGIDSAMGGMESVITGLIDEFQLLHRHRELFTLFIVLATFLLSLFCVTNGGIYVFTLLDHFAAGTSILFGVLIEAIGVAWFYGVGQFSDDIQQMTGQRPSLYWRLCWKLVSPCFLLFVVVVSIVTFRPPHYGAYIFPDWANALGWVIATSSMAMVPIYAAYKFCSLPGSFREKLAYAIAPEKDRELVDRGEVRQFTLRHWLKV
# [5] = tested on: rat 5-HT, NE and DA transport, synaptosomal preparations; experiment: Rat brain synaptosomal transport: rank order of potency; type: biochemical; details: from Ki values; S = 5HT, N = NE, D = DA
# [6] = biological target: T1, human dopamine transporter (hDAT) (Homo sapiens, UniProt Q01959); experiment: Radioligand binding to cloned hDAT, [3H]WIN35428, HEK-293 cell membranes; details: for Binding at hDAT compared to PRC200-SS: in words
# T1 construct: expressed in transfected cells; host or cells: HEK-293, stably transfected
# T1 sequence (Q01959 whole entry): as above
# [7] = Geometric Mean ± SEM, HCl salts, read-out: Equilibrium Dissociation Constant (KD) for Transporter Binding, hDAT (D)
# [8] = mice, 5 and 10 mg/kg IP, 30 minutes before testing
# human norepinephrine transporter, sequence (P23975 whole entry): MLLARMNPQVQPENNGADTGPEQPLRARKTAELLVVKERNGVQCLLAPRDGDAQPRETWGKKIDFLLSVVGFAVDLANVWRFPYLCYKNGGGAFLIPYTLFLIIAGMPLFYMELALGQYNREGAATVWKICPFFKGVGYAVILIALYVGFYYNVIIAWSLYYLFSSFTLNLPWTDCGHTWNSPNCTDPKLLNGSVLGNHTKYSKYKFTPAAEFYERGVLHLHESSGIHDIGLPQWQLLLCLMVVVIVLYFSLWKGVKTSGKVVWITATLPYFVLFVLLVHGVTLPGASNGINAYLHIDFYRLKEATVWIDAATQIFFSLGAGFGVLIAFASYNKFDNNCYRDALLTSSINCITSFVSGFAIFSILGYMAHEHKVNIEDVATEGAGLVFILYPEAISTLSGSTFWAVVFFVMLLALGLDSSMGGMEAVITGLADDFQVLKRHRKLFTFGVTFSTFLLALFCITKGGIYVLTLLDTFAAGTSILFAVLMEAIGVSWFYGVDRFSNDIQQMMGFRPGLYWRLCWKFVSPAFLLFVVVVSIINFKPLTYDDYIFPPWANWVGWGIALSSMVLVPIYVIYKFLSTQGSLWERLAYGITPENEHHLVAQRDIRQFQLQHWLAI
SMILES,Ki [1],Ki [2],"Potency (rank order, transport into cells expressing human transporters) [3]","Potency (rank-order of potency of binding; S = hSERT, N = hNET, D = hDAT) (hSERT, hNET, hDAT)","Potency Range (difference between most potent and least potent binding) (hSERT, hNET, hDAT)",Ki [4],"Potency (rank order, transport into rat brain synaptosomal preparations) [5]","Kd [6, 7]",Kd [6],Binding at hDAT compared to PRC200-SS [6],also measured
"CNC[C@H](c1ccc2ccccc2c1)[C@H](OCCCCCO[C@H](c1ccccc1)[C@H](CNC)c1ccc2ccccc2c1)c1ccccc1 [MCJ001-Dimer5-SS, (2S,2′S,3S,3′S)-3,3′-(pentane-1,5-diylbis(oxy))bis(N-methyl-2-(naphthalen-2-yl)-3-phenylpropan-1-amine)]",720 nM,14 ± 2 nM,S > D > N,D > S > N,1.4 fold,52 nM,S > N > D,113 ± 6 nM,–,–,"Duration of immobility in TST vs saline (male C57BL/6J mice; mice): except MCJ002-NH2-SS and MCJ001-Dimer5-SS, significantly reduced the time that the animals were immobile; Species selectivity: blocking transport by human vs rat serotonin and dopamine transporters [3]: much more potent at blocking transport by the human serotonin and dopamine transporters"
"CNC[C@@H](c1ccc2ccccc2c1)[C@H](F)c1ccccc1 [MCJ001-F-SR, (2R,3S)-3-fluoro-N-methyl-2-(naphthalen-2-yl)-3-phenylpropan-1-amine]",–,150 nM,–,D > S > N,12 fold,–,S > N > D,–,36 ± 6 nM,"potently binds to hDAT, in the range of that seen with PRC200-SS","Immobility in TST (counts per 6-minute session) vs saline (male C57BL/6J mice; mice, 10 mg/kg IP, FIG. 10C): significantly (P<0.033) reduced immobility; Mobility in TST (counts per 6-minute session) vs saline (male C57BL/6J mice; mice, 10 mg/kg IP, FIG. 10C): significantly (P≦0.033) increased mobility; Potency (rank-order of potency of binding; S = hSERT, N = hNET, D = hDAT) (hSERT, hNET, hDAT; listed as MCJ001-F—SR): D>S>N"
"CNC[C@H](c1ccc2ccccc2c1)[C@H](OC)c1ccccc1 [MCJ001-OMe-SS, (2S,3S)-3-methoxy-N-methyl-2-(naphthalen-2-yl)-3-phenylpropan-1-amine]",1.2 ± 0.2 nM,12 ± 2 nM,N > S > D,N > S > D,29 fold,21 ± 3 nM,S > N > D,–,40.6 ± 0.8 nM,–,"Immobility in TST (counts per 6-minute session) vs saline (male C57BL/6J mice; mice, 15 mg/kg orally (gastric gavage), FIG. 10A): significantly (P<0.02) reduced immobility; Immobility in TST (counts per 6-minute session) vs saline (male C57BL/6J mice; mice, 5 and 10 mg/kg IP): significantly (P<0.02) reduced immobility; Mobility in TST (counts per 6-minute session) vs saline (male C57BL/6J mice; [8]): significantly (P<0.02) increased mobility"
"CNC[C@@H](c1ccc2ccccc2c1)[C@H](N=[N+]=[N-])c1ccccc1 [MCJ001-N3-SR, (2R,3S)-3-azido-N-methyl-2-(naphthalen-2-yl)-3-phenylpropan-1-amine]",1400 nM,46 ± 6 nM,S > D > N,S > N > D,3.8 fold,77 nM,N > S > D,1440 ± 70 nM,–,–,Species selectivity: blocking transport by human vs rat serotonin and dopamine transporters [3]: much more potent at blocking transport by the human serotonin and dopamine transporters
"CNC[C@H](c1ccc2ccccc2c1)[C@@H](N=[N+]=[N-])c1ccccc1 [MCJ001-N3-RS, (2S,3R)-3-azido-N-methyl-2-(naphthalen-2-yl)-3-phenylpropan-1-amine]",24 ± 4 nM,48 ± 10 nM,N > S > D,N > S > D,3.0 fold,64 nM,N > S > D,190 ± 20 nM,–,–,–
"CN(C)C[C@H](c1ccc2ccccc2c1)[C@H](N)c1ccccc1 [MCJ002-NH2-SS, (2S,3S)-N1,N1-dimethyl-2-(naphthalen-2-yl)-3-phenylpropane-1,3-diamine]",–,–,–,S > D > N,5.3 fold,–,–,–,4.2 ± 0.2 nM,several fold more potent binding at hDAT,"Duration of immobility in TST vs saline (male C57BL/6J mice; mice): except MCJ002-NH2-SS and MCJ001-Dimer5-SS, significantly reduced the time that the animals were immobile; Occupancy of hDAT binding sites ([6]; when the compound occupies 95% of hSERT binding sites, calculation based on occupancy theory): 92%"
"CNC[C@H](c1ccc2ccccc2c1)[C@@H](F)c1ccccc1 [MCJ001-F-RS, (2S,3R)-3-fluoro-N-methyl-2-(naphthalen-2-yl)-3-phenylpropan-1-amine]",4.8 nM,3.5 ± 0.9 nM,S > N > D,N > S > D,21 fold,30 ± 5 nM,S = N > D,–,19 ± 2 nM,Enhanced binding to hDAT,"Immobility in TST (counts per 6-minute session) vs saline (male C57BL/6J mice; mice, 1, 2.5, and 5 mg/kg IP, FIG. 10B): significantly (P<0.005) reduced immobility; Mobility in TST (counts per 6-minute session) vs saline (male C57BL/6J mice; mice, 2.5 and 5 mg/kg IP, FIG. 10B): significantly (P<0.005) increased mobility"
"CNCC(c1ccc2ccccc2c1)C(F)c1ccccc1 (racemic) [MCJ001-F-(±)-RR, (2R,3R/2S,3S)-3-fluoro-N-methyl-2-(naphthalen-2-yl)-3-phenylpropan-1-amine]",2.1 ± 0.5 nM,18 ± 3 nM,N > S > D,S > N > D,36 fold,33 ± 1 nM,N > S > D,–,140 ± 10 nM,–,"Immobility in TST (counts per 6-minute session) vs saline (male C57BL/6J mice; mice, 5 and 10 mg/kg IP): significantly (P≦0.016) reduced immobility; Mobility in TST (counts per 6-minute session) vs saline (male C57BL/6J mice; [8]): significantly (P≦0.016) increased mobility"
